Holding throughout (type): in vitro ADME
Series [1] can be described thus: stability test in liver microsomes (rat). How it is done: (§1) The stability of the compound of the present invention in liver microsomes of rat, monkey and human was determined. Tested compounds of the present invention were the compounds in Examples 6 and 8 , and a control drug was Zavegepant.
(§2) 3.2 An appropriate amount of liver microsome solution was transferred into a 1 mL 96-deep-well plate, added with a tested drug liquid (or a probe substrate solution), and pre-incubated in a thermal mixer at 37°C for 5 minutes. Two parts of mixed solutions were taken out from the system and added with 1×PBS to replace NADPH, and the mixed solutions were taken out at 0 and 60 minutes respectively, and added with methanol (containing an internal standard) to terminate the reaction. In the remaining mixed system, each well was added with NADPH to start the reaction. In the tested substance group, mixed solutions were taken out from the system at 0, 5, 15, 30, 45 and 60 minutes, and in the control group, mixed solutions were taken out from the system at 0, 30 and 60 minutes, and the mixed solutions were added methanol (containing an internal standard) to terminate the reaction. All samples of the terminated reaction were mixed evenly and centrifuged in a centrifuge at 3800 rpm for 15 minutes, and the supernatant was taken for LC-MS/MS analysis.
(§3) A peak area was determined by an extracted ion chromatogram. A slope value k was determined by linear regression of a remaining percentage of a parent drug relative to a natural logarithm of an incubation time curve. According to the slope, in-vitro half-life periods (t1/2) were respectively calculated, and in-vitro intrinsic clearance rates (CLint, represented by µL/min/mg protein) were calculated. Calculation formulas were as follows: t1/2 = ln2/k = 0.693/k; and CLint = 0.693/t1/2 /liver microsome protein concentration [formula]
(In general: Liver microsomes are a subcellular fraction often used to study metabolism.)

The nature of series [2]: stability test in liver microsomes (monkey). On the procedure: as §1, §2, §3
Series [3] in a line: stability test in liver microsomes (human). How it is done: as §1, §2, §3
Series [4] has as its system Plasma of SD rat. Briefly: plasma protein binding rate test, equilibrium dialysis (rat). Particulars: 1 µM, 37°C, 6 hours. On the procedure:
(§4) Protein binding rates of the compound of the present invention in plasma of rat, monkey and human were determined by an equilibrium dialysis method. Tested compounds of the present invention were the compounds in Examples 6 and 8.
(§5) 3.1 A dry dialysis membrane was rinsed with ultrapure water for 2-3 times, and then soaked in a phosphate buffer for 1 hour for later use. Polytetrafluoroethylene module was soaked in 20% ethanol for 30 minutes, and then surface moisture was dried with dust-free paper for later use. The pretreated dialysis membrane was assembled into a dialysis plate according to the product specification, and one side (receptor compartment) of an osmotic membrane in each dialysis well was added with 100 µL of receptor fluid (100 mM phosphate buffer solution plus 0.002% Tween 80).
(§6) 3.2 The plasma was put into a centrifuge tube, a working solution of a tested substance was added into the plasma, wherein a final concentration was 1 µM, and the mixture was turned upside down and mixed evenly (this step was carried out in ice bath). 20 µL of drug-containing plasma each was taken, and was respectively transferred to a 96-well sample plate according to two parts in parallel, and stored in a refrigerator at -20°C as a T0 sample.
(§7) 3.3 Another 100 µL of the above drug-containing plasma was transferred to the other side (sample compartment) of the membrane in the dialysis device according to two parts in parallel, and incubated under vibration at a constant temperature of 37°C for 6 hours. […]
(§8) A plasma protein binding rate and a recovery rate of the compound in plasma were calculated by the following formulas: dissociation percentage (%) = CB /CA; [formula] plasma protein binding rate (fb%) = 1−dissociation percentage (%); [formula] recovery rate (%) = (CB+CA)/CT0 [formula] wherein CB was a concentration of the compound in the receptor fluid after equilibrium dialysis; CA was a concentration of the compound in the drug-containing plasma after equilibrium dialysis; and CT0 was an initial concentration of the compound in plasma.
A general note: In equilibrium dialysis free small molecules cross a membrane that holds back macromolecules.

Series [5] concerns Plasma of cynomolgus monkey. Put plainly: plasma protein binding rate test, equilibrium dialysis (monkey). Particulars: 1 µM, 37°C, 6 hours. On the procedure: as §4, §5, §6, §7, §8
The test system of series [6] is Plasma of human. Briefly: plasma protein binding rate test, equilibrium dialysis (human). As to conditions: 1 µM, 37°C, 6 hours. On the procedure: as §4, §5, §6, §7, §8

For the compound `[2H]C([2H])([2H])N1CCC(N2CCN(C(=O)[C@@H](Cc3cc(C)c4[nH]ncc4c3)NC(=O)N3CCC(c4cc5c([nH]c4=O)SCC5)CC3)CC2)CC1` [Example 29, (R)-N-(3-(7-methyl-1H-indazole-5-yl)-1-(4-(1-(methyl-d3)piperidine-4-yl)piperazine-1-yl)-1-oxopropan-2-yl)-4-(6-oxo-2,3,6,7-tetrahydrothieno[2,3-b]pyridine-5-yl)piperidine-1-formamide], the half-life (as a rule, how long it takes for the measured level to halve) at 1 µM in series [1] (Rat liver microsomes 0.5 mg/mL, 1.0 µM) is greater than 2 h; in series [2] (Monkey liver microsomes 0.5 mg/mL, 1.0 µM), greater than 2 h; in series [3] (Human liver microsomes 0.5 mg/mL, 1.0 µM), greater than 2 h. The “% remaining (60 min)” value in series [1] (Rat liver microsomes, 60 min) stood at 105%; in series [2] (Monkey liver microsomes, 60 min) it was 98.9%; in series [3] (Human liver microsomes, 60 min), 115%. In series [2] (Monkey liver microsomes), the microsomal CLint (usually a measure of how fast metabolising enzymes remove a compound, apart from limits set by blood flow) at 1 µM was 1.6 µL/min/mg. The figures for the “fb (%)” value in series [4], in series [5] and in series [6] were 64.3%, 56.1% and 50.2%, respectively.
